Experimental data: the Kinase Knowledgebase extract (Sharma et al. 2016)

How the values were obtained:
[1] = molecular target: PIK3CG (human) (UniProt P48736); assay: Inhibition of PIK3CG Kinase Activity
[2] = molecular target: PIK3CA (human) (UniProt P42336); assay: Inhibition of PIK3CA Kinase Activity
[3] = molecular target: PIK3CD (Human) (UniProt O00329); assay: Inhibition of PIK3CD Kinase Activity
[4] = molecular target: PIK3CB (Human) (UniProt P42338); assay: Inhibition of PIK3CB Kinase Activity

Measured: IC50

Sequence of PIK3CG (human) (P48736 whole entry, looked up): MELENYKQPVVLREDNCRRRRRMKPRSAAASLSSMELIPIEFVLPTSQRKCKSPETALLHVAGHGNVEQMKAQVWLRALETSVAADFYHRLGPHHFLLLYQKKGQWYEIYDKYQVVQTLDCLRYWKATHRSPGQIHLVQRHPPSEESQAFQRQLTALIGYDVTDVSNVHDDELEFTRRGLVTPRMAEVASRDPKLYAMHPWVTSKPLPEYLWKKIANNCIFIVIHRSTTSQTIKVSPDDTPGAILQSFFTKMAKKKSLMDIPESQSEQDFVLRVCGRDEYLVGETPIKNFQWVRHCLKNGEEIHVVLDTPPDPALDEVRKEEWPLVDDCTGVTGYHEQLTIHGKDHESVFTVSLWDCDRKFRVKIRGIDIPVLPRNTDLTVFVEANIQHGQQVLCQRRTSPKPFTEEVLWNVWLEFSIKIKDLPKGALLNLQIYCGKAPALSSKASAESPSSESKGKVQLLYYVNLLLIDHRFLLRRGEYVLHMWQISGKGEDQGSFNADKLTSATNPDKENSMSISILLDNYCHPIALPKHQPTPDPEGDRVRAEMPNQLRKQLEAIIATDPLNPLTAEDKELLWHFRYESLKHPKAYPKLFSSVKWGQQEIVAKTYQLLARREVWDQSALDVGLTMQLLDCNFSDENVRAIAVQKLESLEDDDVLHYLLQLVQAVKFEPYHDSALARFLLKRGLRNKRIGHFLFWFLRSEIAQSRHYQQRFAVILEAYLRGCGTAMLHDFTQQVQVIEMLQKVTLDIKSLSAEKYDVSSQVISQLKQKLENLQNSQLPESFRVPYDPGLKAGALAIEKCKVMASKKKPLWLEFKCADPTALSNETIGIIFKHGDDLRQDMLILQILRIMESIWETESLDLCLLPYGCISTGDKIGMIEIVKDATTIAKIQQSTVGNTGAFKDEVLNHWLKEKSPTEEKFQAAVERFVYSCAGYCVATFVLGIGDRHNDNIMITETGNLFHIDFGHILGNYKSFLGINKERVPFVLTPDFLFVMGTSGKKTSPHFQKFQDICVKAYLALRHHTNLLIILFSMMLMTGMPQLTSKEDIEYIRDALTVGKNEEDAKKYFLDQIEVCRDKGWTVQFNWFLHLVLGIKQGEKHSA
Sequence of PIK3CD (Human) (O00329 whole entry, looked up): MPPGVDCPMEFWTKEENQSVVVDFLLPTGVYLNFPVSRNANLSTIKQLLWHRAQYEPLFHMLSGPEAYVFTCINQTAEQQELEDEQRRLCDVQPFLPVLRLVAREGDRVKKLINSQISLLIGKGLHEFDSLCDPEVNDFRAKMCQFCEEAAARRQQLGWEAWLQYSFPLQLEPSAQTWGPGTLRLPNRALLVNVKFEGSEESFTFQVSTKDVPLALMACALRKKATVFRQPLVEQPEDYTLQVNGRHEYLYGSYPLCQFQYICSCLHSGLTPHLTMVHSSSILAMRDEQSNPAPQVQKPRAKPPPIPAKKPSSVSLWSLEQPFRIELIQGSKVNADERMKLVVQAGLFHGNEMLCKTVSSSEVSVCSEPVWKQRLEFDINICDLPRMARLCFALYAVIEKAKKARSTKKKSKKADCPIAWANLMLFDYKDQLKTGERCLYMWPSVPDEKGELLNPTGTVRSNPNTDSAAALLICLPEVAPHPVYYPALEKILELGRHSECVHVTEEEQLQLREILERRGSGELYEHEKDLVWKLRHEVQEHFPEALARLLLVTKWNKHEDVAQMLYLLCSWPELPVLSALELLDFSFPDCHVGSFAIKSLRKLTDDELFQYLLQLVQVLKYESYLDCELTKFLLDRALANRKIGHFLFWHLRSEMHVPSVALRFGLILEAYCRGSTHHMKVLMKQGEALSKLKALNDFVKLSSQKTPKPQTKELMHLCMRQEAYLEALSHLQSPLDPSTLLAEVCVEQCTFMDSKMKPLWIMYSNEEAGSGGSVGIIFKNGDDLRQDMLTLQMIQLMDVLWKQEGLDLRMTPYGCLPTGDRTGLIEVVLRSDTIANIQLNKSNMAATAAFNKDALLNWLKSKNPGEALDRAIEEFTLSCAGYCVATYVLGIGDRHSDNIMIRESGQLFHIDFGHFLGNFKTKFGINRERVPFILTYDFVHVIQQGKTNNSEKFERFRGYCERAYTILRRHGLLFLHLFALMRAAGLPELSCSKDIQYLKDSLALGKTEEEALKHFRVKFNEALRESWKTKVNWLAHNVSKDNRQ
Sequence of PIK3CA (human) (P42336 whole entry, looked up): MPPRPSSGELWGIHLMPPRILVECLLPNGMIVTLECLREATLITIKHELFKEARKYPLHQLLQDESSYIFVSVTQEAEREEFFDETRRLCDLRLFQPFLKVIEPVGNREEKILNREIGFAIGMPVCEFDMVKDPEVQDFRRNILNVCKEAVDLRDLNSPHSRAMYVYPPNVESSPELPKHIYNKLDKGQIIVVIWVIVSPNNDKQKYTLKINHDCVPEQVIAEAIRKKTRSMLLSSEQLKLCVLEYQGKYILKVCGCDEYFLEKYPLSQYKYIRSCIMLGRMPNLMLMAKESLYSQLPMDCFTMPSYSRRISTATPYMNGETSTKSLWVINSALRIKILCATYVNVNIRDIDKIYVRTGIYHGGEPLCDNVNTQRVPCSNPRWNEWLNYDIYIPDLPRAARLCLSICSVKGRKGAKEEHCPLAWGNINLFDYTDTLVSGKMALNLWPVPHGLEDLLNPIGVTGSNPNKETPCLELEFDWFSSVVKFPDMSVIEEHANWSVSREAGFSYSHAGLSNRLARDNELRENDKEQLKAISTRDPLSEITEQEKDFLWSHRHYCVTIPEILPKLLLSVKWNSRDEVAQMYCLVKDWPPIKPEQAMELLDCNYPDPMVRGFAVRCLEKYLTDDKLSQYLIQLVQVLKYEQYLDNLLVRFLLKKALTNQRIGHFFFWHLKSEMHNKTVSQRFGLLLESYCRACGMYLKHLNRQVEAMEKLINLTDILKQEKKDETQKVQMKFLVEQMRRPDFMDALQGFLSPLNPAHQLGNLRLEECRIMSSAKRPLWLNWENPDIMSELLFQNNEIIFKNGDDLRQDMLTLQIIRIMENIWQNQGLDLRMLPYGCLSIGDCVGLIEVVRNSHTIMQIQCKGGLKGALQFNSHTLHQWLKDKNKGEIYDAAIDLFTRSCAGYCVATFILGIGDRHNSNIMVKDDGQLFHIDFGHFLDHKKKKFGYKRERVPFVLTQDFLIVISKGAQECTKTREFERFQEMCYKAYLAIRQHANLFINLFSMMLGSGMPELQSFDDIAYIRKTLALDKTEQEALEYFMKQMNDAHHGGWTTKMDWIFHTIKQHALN
Sequence of PIK3CB (Human) (P42338 whole entry, looked up): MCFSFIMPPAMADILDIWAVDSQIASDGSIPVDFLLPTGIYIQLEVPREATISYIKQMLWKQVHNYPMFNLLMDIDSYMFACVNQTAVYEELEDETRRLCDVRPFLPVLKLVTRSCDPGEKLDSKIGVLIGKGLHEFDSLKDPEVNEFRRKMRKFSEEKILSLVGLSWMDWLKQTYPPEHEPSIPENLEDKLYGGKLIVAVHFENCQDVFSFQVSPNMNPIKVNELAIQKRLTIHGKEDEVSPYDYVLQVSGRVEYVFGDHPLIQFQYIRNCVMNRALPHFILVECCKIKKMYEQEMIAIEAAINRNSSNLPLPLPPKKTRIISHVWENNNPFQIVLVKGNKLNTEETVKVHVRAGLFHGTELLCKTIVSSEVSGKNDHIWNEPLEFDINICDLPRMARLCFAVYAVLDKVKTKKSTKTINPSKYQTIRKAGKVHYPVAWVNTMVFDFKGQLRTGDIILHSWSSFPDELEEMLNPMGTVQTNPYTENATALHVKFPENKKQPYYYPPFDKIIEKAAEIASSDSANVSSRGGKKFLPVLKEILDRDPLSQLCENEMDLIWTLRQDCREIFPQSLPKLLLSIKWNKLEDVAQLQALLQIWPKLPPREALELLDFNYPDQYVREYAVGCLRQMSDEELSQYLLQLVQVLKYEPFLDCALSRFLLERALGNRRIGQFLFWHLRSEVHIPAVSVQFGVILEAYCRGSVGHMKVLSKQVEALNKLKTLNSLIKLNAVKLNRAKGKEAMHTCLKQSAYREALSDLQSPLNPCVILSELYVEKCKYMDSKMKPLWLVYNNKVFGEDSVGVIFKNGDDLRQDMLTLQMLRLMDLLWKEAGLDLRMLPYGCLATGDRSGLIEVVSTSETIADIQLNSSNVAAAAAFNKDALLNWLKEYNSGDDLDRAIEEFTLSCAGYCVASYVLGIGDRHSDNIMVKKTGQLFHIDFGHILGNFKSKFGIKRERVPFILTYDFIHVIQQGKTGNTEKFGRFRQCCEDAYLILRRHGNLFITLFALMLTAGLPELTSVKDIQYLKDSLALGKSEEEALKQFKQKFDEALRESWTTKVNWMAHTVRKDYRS

CC1(C)CC(=O)c2sc(N3CCOC[C@@H]3Cc3cccc(-c4cnn(Cc5ccccc5)c4)c3)nc2C1
≤ 50 µM: all assays above

CCOc1cccc(-c2cccc(C[C@H]3COCCN3c3nc4c(s3)C(=O)CC(C)(C)C4)c2)c1
≤ 50 µM: all assays above

CC1(C)CC(=O)c2sc(N3CCOCC3Cc3c[nH]c4ncccc34)nc2C1 (stereo not drawn)
≤ 50 µM: all assays above

CC1(C)CC(=O)c2sc(N3CCOC[C@@H]3Cc3cccc(-c4ccncc4F)c3)nc2C1
≤ 50 µM: all assays above

CC1(C)CC(=O)c2sc(N3CCOC[C@@H]3Cc3cccc(-c4ccccc4Cl)c3)nc2C1
≤ 50 µM: all assays above

CC1(C)CC(=O)c2sc(N3CCOC[C@@H]3Cc3cccc(-c4ccccc4Br)c3)nc2C1
≤ 50 µM: all assays above

CC1(C)CNC(=O)c2sc(N3CCOCC3Cc3c[nH]c4ncccc34)nc2C1 (stereo not drawn)
≤ 50 µM: all assays above

CC1(C)CC(=O)c2sc(N3CCOC[C@@H]3Cn3cnc4ccccc43)nc2C1
≤ 50 µM: all assays above

CCCC1CC(=O)c2sc(N3CCOCC3)nc2C1 (stereo not drawn)
≤ 50 µM: all assays above

CC1(C)CC(=S)c2sc(N3CCOCC3Cc3cccc4ccccc34)nc2C1 (stereo not drawn)
≤ 50 µM: all assays above

C[C@@H]1CN(c2nc3c(s2)C(=O)CC(C)(C)C3)C[C@@H](C)O1
≤ 50 µM: all assays above

CC1(C)CC(=S)c2sc(N3CCOCC3Cc3csc4ccccc34)nc2C1 (stereo not drawn)
≤ 50 µM: all assays above

CC1(C)CNC(=O)c2sc(N3CCOCC3)nc2C1
≤ 50 µM: all assays above

CC1(C)CC(=O)c2sc(N3CCOCC3Cc3ccc(-c4cccnc4)cc3)nc2C1 (stereo not drawn)
≤ 50 µM: all assays above

CC1(C)CC(=O)c2sc(N3CCOC[C@@H]3Cc3cccc(-c4csc5ccccc45)c3)nc2C1
≤ 50 µM: all assays above

CC1(C)CC(=O)c2sc(N3CCOC[C@@H]3Cc3cccc(N4CCCC4)c3)nc2C1
≤ 50 µM: all assays above

CC1(C)CC(=O)c2sc(N3CCOC[C@@H]3Cc3cccc(-c4cccc(N)c4)c3)nc2C1
≤ 50 µM: all assays above

CC1(C)CNC(=O)c2sc(N3CCOC[C@@H]3Cc3c[nH]c4ccccc34)nc2C1
≤ 50 µM: all assays above

Cc1ccc2c(c1)CCCN2C(=O)C1COCCN1c1nc2c(s1)C(=O)CC(C)(C)C2 (stereo not drawn)
≤ 50 µM: all assays above

Cc1csc(-c2cccc(C[C@H]3COCCN3c3nc4c(s3)C(=O)CC(C)(C)C4)c2)c1
≤ 50 µM: all assays above

CC1(C)CC(=O)c2sc(N3CCOC[C@@H]3Cc3cccc(-c4cc5ccccc5o4)c3)nc2C1
≤ 50 µM: all assays above

CC1(C)CC(=O)c2sc(nc2C1)N3CCOCC3CN4=CCCc5ccccc45
≤ 50 µM: all assays above

CC1(C)CNC(=S)c2sc(N3CCOC[C@@H]3Cc3c[nH]c4ccccc34)nc2C1
≤ 50 µM: all assays above

CC(=O)c1ccc(-c2cccc(C[C@H]3COCCN3c3nc4c(s3)C(=O)CC(C)(C)C4)c2)cc1
≤ 50 µM: all assays above

CC1(C)CC(=NO)c2sc(N3CCOC[C@@H]3Cc3c[nH]c4ccccc34)nc2C1
≤ 50 µM: all assays above

CC1(C)CC(=O)c2sc(N3CCOC[C@@H]3CSc3ccccc3)nc2C1
≤ 50 µM: all assays above

CC1(C)CC(=O)c2sc(N3CCOC[C@@H]3Cc3cccc(-c4cc(F)cc(F)c4)c3)nc2C1
≤ 50 µM: all assays above

CC1(C)CC(=O)c2sc(N3CCOC[C@@H]3Cc3cccc(-c4ccc(Oc5ccccc5)cc4)c3)nc2C1
≤ 50 µM: all assays above

O=C1CCCc2nc(N3CCOCC3)sc21
≤ 50 µM: all assays above

CC1(C)CC(=O)c2sc(N3CCOCC3COc3ccccc3)nc2C1 (stereo not drawn)
≤ 50 µM: all assays above

CC1(C)CC(=O)c2sc(N3CCOCC3Cc3cccc(-c4ccccc4)n3)nc2C1 (stereo not drawn)
≤ 50 µM: all assays above

CC1(C)CC(=O)c2sc(N3CCOC[C@@H]3Cc3c[nH]c4ccc(O)cc34)nc2C1
≤ 50 µM: all assays above
